In this test the target is T1, full length SGK1 (Homo sapiens, UniProt O00141).
T1 construct: 125 μM full length SGK1 (Life Technologies Part #PR7358A); purchased Life Technologies PR7358A
T1 sequence (O00141 1-431): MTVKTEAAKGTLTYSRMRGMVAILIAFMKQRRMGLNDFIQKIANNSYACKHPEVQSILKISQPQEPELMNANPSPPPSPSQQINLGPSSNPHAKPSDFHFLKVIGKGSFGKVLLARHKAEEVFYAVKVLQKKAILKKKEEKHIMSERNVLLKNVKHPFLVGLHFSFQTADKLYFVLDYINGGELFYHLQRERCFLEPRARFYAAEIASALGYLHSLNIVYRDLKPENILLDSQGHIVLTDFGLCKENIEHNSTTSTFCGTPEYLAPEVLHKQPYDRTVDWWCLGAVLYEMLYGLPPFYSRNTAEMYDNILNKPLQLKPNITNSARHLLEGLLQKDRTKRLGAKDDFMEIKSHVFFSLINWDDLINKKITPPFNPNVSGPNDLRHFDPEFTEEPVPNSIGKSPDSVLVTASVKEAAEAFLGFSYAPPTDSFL
The test can be described thus: SGK1 inhibition Assay A (Caliper LabChip electrophoretic separation of fluorescent peptide substrate and phosphorylated product). Type of test: biochemical. Particulars: Assay A; 20 μM ATP, 40 min incubation; read-out: SGK1 IC50.

Broadly, the pIC50 is −log10 of the IC50, conventionally taken in molar units.

pIC50: −log10 of the molar value. Counter-ions that a name gives are not always drawn.

Turning to `COc1cc(-c2cc(N3CCC[C@@H](NC(=O)c4cccc(N5CCN(C)CC5)n4)C3)c3c(N)ncnn23)ccn1` [Example 786, (R)-N-(1-(4-amino-7-(2-methoxypyridin-4-yl)pyrrolo[2,1-f][1,2,4]triazin-5-yl)piperidin-3-yl)-6-(4-methylpiperazin-1-yl)picolinamide], the pIC50 was 8.22.

Take `CN1CCN(c2cccc(C(=O)N[C@@H]3CCCN(c4cc(-c5cncnc5)n5ncnc(N)c45)C3)n2)CC1` [Example 787, (R)-N-(1-(4-amino-7-(pyrimidin-5-yl)pyrrolo[2,1-f][1,2,4]triazin-5-yl)piperidin-3-yl)-6-(4-methylpiperazin-1-yl)picolinamide]: the negative logarithm of the IC50 (pIC50) was 7.11. Turning to `COc1ncc(-c2cc(N3CCC[C@@H](NC(=O)c4cccc(N5CCN(C)CC5)n4)C3)c3c(N)ncnn23)cn1` [Example 788, (R)-N-(1-(4-amino-7-(2-methoxypyrimidin-5-yl)pyrrolo[2,1-f][1,2,4]triazin-5-yl)piperidin-3-yl)-6-(4-methylpiperazin-1-yl)picolinamide], the pIC50 was 6.36. For the compound `CC(=O)c1ncc(-c2cc(N3CCC[C@@H](NC(=O)c4cccc(N5CCN(C)CC5)n4)C3)c3c(N)ncnn23)s1` [Example 791, (R)-N-(1-(7-(2-acetylthiazol-5-yl)-4-aminopyrrolo[2,1-f][1,2,4]triazin-5-yl)piperidin-3-yl)-6-(4-methylpiperazin-1-yl)picolinamide], the pIC50 is 7.82. With `CC(C)n1cc(-c2cc(N3CCC[C@@H](NC(=O)c4cccc(N5CCN(C)CC5)n4)C3)c3c(N)ncnn23)ccc1=O` [Example 792, (R)-N-(1-(4-amino-7-(1-isopropyl-6-oxo-1,6-dihydropyridin-3-yl)pyrrolo[2,1-f][1,2,4]triazin-5-yl)piperidin-3-yl)-6-(4-methylpiperazin-1-yl)picolinamide] the figure was 7.54. Under `CN1CCN(c2cccc(C(=O)N[C@@H]3CCCN(c4cc(-c5ccnn5C)n5ncnc(N)c45)C3)n2)CC1` [Example 795, (R)-N-(1-(4-amino-7-(1-methyl-1H-pyrazol-5-yl)pyrrolo[2,1-f][1,2,4]triazin-5-yl)piperidin-3-yl)-6-(4-methylpiperazin-1-yl)picolinamide] stands 7.06.

Regarding `CC(C)n1nccc1-c1cc(N2CCC[C@@H](NC(=O)c3cccc(N4CCN(C)CC4)n3)C2)c2c(N)ncnn12` [Example 796, (R)-N-(1-(4-amino-7-(1-isopropyl-1H-pyrazol-5-yl)pyrrolo[2,1-f][1,2,4]triazin-5-yl)piperidin-3-yl)-6-(4-methylpiperazin-1-yl)picolinamide], the pIC50 is 6.11. On to `CN1CCN(c2cccc(C(=O)N[C@@H]3CCCN(c4cc(-c5ccc(=O)n(C)c5)n5ncnc(N)c45)C3)n2)CC1` [Example 797, (R)-N-(1-(4-amino-7-(1-methyl-6-oxo-1,6-dihydropyridin-3-yl)pyrrolo[2,1-f][1,2,4]triazin-5-yl)piperidin-3-yl)-6-(4-methylpiperazin-1-yl)picolinamide], for which the pIC50 was 7.89. For `CN1CCN(c2cccc(C(=O)N[C@@H]3CCCN(c4cc(-c5ccc(=O)[nH]c5)n5ncnc(N)c45)C3)n2)CC1` [Example 798, (R)-N-(1-(4-amino-7-(6-oxo-1,6-dihydropyridin-3-yl)pyrrolo[2,1-f][1,2,4]triazin-5-yl)piperidin-3-yl)-6-(4-methylpiperazin-1-yl)picolinamide], the pIC50 was 7.68.

For the compound `CCn1cc(-c2cc(N3CCC[C@@H](NC(=O)c4cccc(N5CCN(C)CC5)n4)C3)c3c(N)ncnn23)ccc1=O` [Example 799, (R)-N-(1-(4-amino-7-(1-ethyl-6-oxo-1,6-dihydropyridin-3-yl)pyrrolo[2,1-f][1,2,4]triazin-5-yl)piperidin-3-yl)-6-(4-methylpiperazine-1-yl)picolinamide], the pIC50 is 8.52. With `CN1CCN(c2cccc(C(=O)N[C@@H]3CCCN(c4cc(-c5ccc(-n6cncn6)nc5)n5ncnc(N)c45)C3)n2)CC1` [Example 800, (R)-N-(1-(7-(6-(1H-1,2,4-triazol-1-yl)pyridin-3-yl)-4-aminopyrrolo[2,1-f][1,2,4]triazin-5-yl)piperidin-3-yl)-6-(4-methylpiperazin-1-yl)picolinamide] the figure was 7.77. On to `CC(=O)c1ccc(-c2cc(N3CCC[C@@H](NC(=O)c4cccc(N5CCN(C)CC5)n4)C3)c3c(N)ncnn23)cc1` [Example 801, (R)-N-(1-(7-(4-acetylphenyl)-4-aminopyrrolo[2,1-f][1,2,4]triazin-5-yl)piperidin-3-yl)-6-(4-methylpiperazin-1-yl)picolinamide], for which the pIC50 was 7.59. Take `CN1CCN(c2cccc(C(=O)N[C@@H]3CCCN(c4cc(-c5ccn(C)c(=O)c5)n5ncnc(N)c45)C3)n2)CC1` [Example 802, (R)-N-(1-(4-amino-7-(1-methyl-2-oxo-1,2-dihydropyridin-4-yl)pyrrolo[2,1-f][1,2,4]triazin-5-yl)piperidin-3-yl)-6-(4-methylpiperazin-1-yl)picolinamide]: the pIC50 is 6.63. Consider `CN1CCN(c2cccc(C(=O)N[C@@H]3CCCN(c4cc(-c5cnn(C6CCOC6)c5)n5ncnc(N)c45)C3)n2)CC1` (stereo partly drawn) [Example 803, N-((3R)-1-(4-amino-7-(1-(tetrahydrofuran-3-yl)-1H-pyrazol-4-yl)pyrrolo[2,1-f][1,2,4]triazin-5-yl)piperidin-3-yl)-6-(4-methylpiperazin-1-yl)picolinamide], for which the pIC50 was 5.69. With `COc1ccc(OC(=O)N[C@@H]2CCCN(c3cc(C4=CCN(C(C)=O)C4)n4ncnc(N)c34)C2)cc1` [Example 812, 4-methoxyphenyl (R)-(1-(7-(1-acetyl-2,5-dihydro-1H-pyrrol-3-yl)-4-aminopyrrolo[2,1-f][1,2,4]triazin-5-yl)piperidin-3-yl)carbamate TFA salt], the pIC50 is 6.01.

Regarding `CC(=O)N1CC=C(c2cc(N3CCC[C@@H](NC(=O)c4cccc(N5CCNCC5)n4)C3)c3c(N)ncnn23)C1` [Example 813, (R)—N-(1-(7-(1-acetyl-2,5-dihydro-1H-pyrrol-3-yl)-4-aminopyrrolo[2,1-f][1,2,4]triazin-5-yl)piperidin-3-yl)-6-(piperazin-1-yl)picolinamide], the pIC50 is 7.49. Take `CC(=O)N1CC=C(c2cc(N3CCC[C@@H](NC(=O)c4cccc(N5C[C@H]6CC[C@@H](C5)N6)n4)C3)c3c(N)ncnn23)C1` [Example 814, N—((R)-1-(7-(1-acetyl-2,5-dihydro-1H-pyrrol-3-yl)-4-aminopyrrolo[2,1-f][1,2,4]triazin-5-yl)piperidin-3-yl)-6-((1R,5S)-3,8-diazabicyclo[3.2.1]octan-3-yl)picolinamide]: the pIC50 was 8.05. Consider `CC(=O)N1CC=C(c2cc(N3CCC[C@@H](NC(=O)c4cc5c(s4)CCNC5)C3)c3c(N)ncnn23)C1` [Example 815, (R)—N-(1-(7-(1-acetyl-2,5-dihydro-1H-pyrrol-3-yl)-4-aminopyrrolo[2,1-f][1,2,4]triazin-5-yl)piperidin-3-yl)-4,5,6,7-tetrahydrothieno[3,2-c]pyridine-2-carboxamide TFA salt], for which the pIC50 is 6.98.

Consider `C#Cc1cc(N2CCC[C@@H](NC(=O)c3ccc(Cl)s3)C2)c2c(N)ncnn12` [Example 862, (R)—N-(1-(4-amino-7-ethynylpyrrolo[2,1-f][1,2,4]triazin-5-yl)piperidin-3-yl)-5-chlorothiophene-2-carboxamide], for which the pIC50 is 6.95. Consider `CC(C)(C)OC(=O)CCn1cc(-c2cc(N3CCC[C@@H](NC(=O)c4ccc(Cl)s4)C3)c3c(N)ncnn23)nn1` [Example 863, tert-butyl (R)-3-(4-(4-amino-5-(3-(5-chlorothiophene-2-carboxamido)piperidin-1-yl)pyrrolo[2,1-f][1,2,4]triazin-7-yl)-1H-1,2,3-triazol-1-yl)propanoate], for which the pIC50 is 6.33. For `Nc1ncnn2c(-c3cn(CCC(=O)O)nn3)cc(N3CCC[C@@H](NC(=O)c4ccc(Cl)s4)C3)c12` [Example 864, (R)-3-(4-(4-amino-5-(3-(5-chlorothiophene-2-carboxamido)piperidin-1-yl)pyrrolo[2,1-f][1,2,4]triazin-7-yl)-1H-1,2,3-triazol-1-yl)propanoic acid], the pIC50 is 6.92. Take `NC(=O)Cn1cc(-c2cc(N3CCC[C@@H](NC(=O)c4ccc(Cl)s4)C3)c3c(N)ncnn23)nn1` [Example 865, (R)—N-(1-(4-amino-7-(1-(2-amino-2-oxoethyl)-1H-1,2,3-triazol-4-yl)pyrrolo[2,1-f][1,2,4]triazin-5-yl)piperidin-3-yl)-5-chlorothiophene-2-carboxamide]: the pIC50 is 6.14. As to `Nc1ncnn2c(-c3cn(C4CCNC4)nn3)cc(N3CCC[C@@H](NC(=O)c4ccc(Cl)s4)C3)c12` (stereo partly drawn) [Example 866, N-((3R)-1-(4-amino-7-(1-(pyrrolidin-3-yl)-1H-1,2,3-triazol-4-yl)pyrrolo[2,1-f][1,2,4]triazin-5-yl)piperidin-3-yl)-5-chlorothiophene-2-carboxamide], the pIC50 is 6.29.

On to `Nc1ncnn2c(-c3cn(CC(=O)O)nn3)cc(N3CCC[C@@H](NC(=O)c4ccc(Cl)s4)C3)c12` [Example 867, (R)-2-(4-(4-amino-5-(3-(5-chlorothiophene-2-carboxamido)piperidin-1-yl)pyrrolo[2,1-f][1,2,4]triazin-7-yl)-1H-1,2,3-triazol-1-yl)acetic acid], for which the pIC50 is 6.67.
